Laboratory results reported in the NIST ThermoML archive (doi:10.1021/je0601816).

Experiment: xn = mol fraction of the nth substance listed
Conditions: 100 kPa, Liquid, Taylor dispersion method, x1 = 0

binary diffusion coefficient (273.2 K) [m2/s]	binary diffusion coefficient (293.2 K) [m2/s]	binary diffusion coefficient (298.2 K) [m2/s]	binary diffusion coefficient (313.2 K) [m2/s]	binary diffusion coefficient (333.2 K) [m2/s]	binary diffusion coefficient (353.2 K) [m2/s]	SMILES
3.19e-10	6.25e-10	7.06e-10	1.01e-09	1.51e-09	2.17e-09	O=C[C@H](O)[C@@H](O)[C@@H](O)[C@H](O)CO [(+)-galactose] + O
3.59e-10	6.82e-10	7.73e-10	1.11e-09	1.67e-09	2.37e-09	O=C[C@@H](O)[C@H](O)[C@H](O)CO [D-(-)-arabinose] + O
3.23e-10	6.05e-10	6.76e-10	9.97e-10	1.49e-09	2.13e-09	O=C[C@H](O)[C@@H](O)[C@H](O)[C@H](O)CO [D-glucose] + O
3.34e-10	6.2e-10	7.04e-10	1.02e-09	1.59e-09	2.16e-09	O=C[C@@H](O)[C@@H](O)[C@H](O)[C@H](O)CO [D-mannose] + O
2.55e-10	4.87e-10	5.46e-10	7.92e-10	1.17e-09	1.69e-09	OC[C@H]1O[C@@](CO)(O[C@H]2O[C@H](CO)[C@@H](O)[C@H](O)[C@H]2O)[C@@H](O)[C@@H]1O [D-sucrose] + O
3.48e-10	6.65e-10	7.69e-10	1.11e-09	1.64e-09	2.33e-09	O=C[C@H](O)[C@@H](O)[C@H](O)CO [D-xylose] + O
